This experiment addresses Serine/threonine-protein phosphatase PP1-beta catalytic subunit (Homo sapiens) (UniProt P62140). Nature of the experiment: PubChem AID 463226. As to conditions: purified PP1, 33P-phosphohistone dephosphorylation, scintillation.

Structures are written as SMILES. Active and inactive are the calls of the source. How the calls were made is not given here.

As a reminder, the IC50 is the concentration needed to halve the response being measured.

Serine/threonine-protein phosphatase PP1-beta catalytic subunit (Homo sapiens), sequence (P62140 whole entry, looked up): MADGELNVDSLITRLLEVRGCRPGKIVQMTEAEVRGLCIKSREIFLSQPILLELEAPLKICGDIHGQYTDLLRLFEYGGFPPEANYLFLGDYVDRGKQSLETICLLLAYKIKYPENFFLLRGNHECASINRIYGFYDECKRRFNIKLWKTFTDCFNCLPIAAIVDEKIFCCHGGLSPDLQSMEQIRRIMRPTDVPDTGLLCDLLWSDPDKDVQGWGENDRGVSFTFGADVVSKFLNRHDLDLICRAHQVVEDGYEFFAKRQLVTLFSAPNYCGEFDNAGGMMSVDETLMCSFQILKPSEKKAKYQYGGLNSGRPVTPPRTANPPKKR

For `O=C(O)C1C2CCC(O2)C1C(=O)NC1CCCCC1` (configuration not stated), the IC50 is 23.2 µM.

With `O=C(O)c1n[nH]nc1-c1ccccc1`, the IC50 result is “inactive”.
